According to ChEMBL document CHEMBL1201862, “PubChem BioAssay data set” (2004):
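Assay format: 96-well plates, 48-hour exposure. GI50 is the concentration that inhibits growth by half.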 The source made the active and inactive calls. No stated cut-off is given here; in the data, active = GI50 up to about 1.1 µM and inactive = higher.

Assays:
Test in all cases: DTP human tumour cell line panel, 48 h
ACHN = tested on: ACHN
MOLT-4 = tested on: MOLT-4
UO-31 = tested on: UO-31
UACC-62 = tested on: UACC-62
UACC-257 = tested on: UACC-257
SK-MEL-2 = tested on: SK-MEL-2
HOP-18 = tested on: HOP-18
XF498 = tested on: XF498
SF-295 = tested on: SF-295
SK-OV-3 = tested on: SK-OV-3
K562 = tested on: K562
DLD-1 = tested on: DLD-1
RXF 393 = tested on: RXF 393
SR = tested on: SR
KM-20L2 = tested on: KM-20L2
SNB-75 = tested on: SNB-75
HL-60 = tested on: HL-60
SW-620 = tested on: SW-620
RPMI-8226 = tested on: RPMI-8226
NCI-H460 = tested on: NCI-H460
M14 = tested on: M14
HOP-62 = tested on: HOP-62
OVCAR-4 = tested on: OVCAR-4
IGROV-1 = tested on: IGROV-1
NCI-H23 = tested on: NCI-H23
HCC 2998 = tested on: HCC 2998
SF-268 = tested on: SF-268
NCI-H226 = tested on: NCI-H226
DMS-114 = tested on: DMS-114
SK-MEL-28 = tested on: SK-MEL-28
U-251 = tested on: U-251
OVCAR-8 = tested on: OVCAR-8
SK-MEL-5 = tested on: SK-MEL-5
KM12 = tested on: KM12
SF-539 = tested on: SF-539
M19-MEL = tested on: M19-MEL
EKVX = tested on: EKVX
A498 = tested on: A498
HOP-92 = tested on: HOP-92
DMS-273 = tested on: DMS-273
LOX IMVI = tested on: LOX IMVI
HCT-116 = tested on: HCT-116
Malme-3M = tested on: Malme-3M
HCT-15 = tested on: HCT-15
SNB-78 = tested on: SNB-78
CCRF-CEM = tested on: CCRF-CEM
LXFL 529 = tested on: LXFL 529
COLO 205 = tested on: COLO 205
HT-29 = tested on: HT-29
OVCAR-3 = tested on: OVCAR-3
TK-10 = tested on: TK-10
OVCAR-5 = tested on: OVCAR-5
786-0 = tested on: 786-0
SNB-19 = tested on: SNB-19
SN12C = tested on: SN12C
RXF 631 = tested on: RXF 631
A549 = tested on: A549
NCI-H522 = tested on: NCI-H522
CAKI-1 = tested on: CAKI-1

In the case of `Cc1cc(=O)oc2cc3c(cc12)Oc1ccccc1O3`, the GI50 (ACHN) is reported as > 100 µM (inactive), the GI50 (MOLT-4) is reported as > 100 µM (inactive) and the GI50 (UO-31) is reported as > 100 µM (inactive). The GI50 (UACC-62) was > 100 µM (inactive), the GI50 (UACC-257) was > 100 µM (inactive) and the GI50 (SK-MEL-2) was > 100 µM (inactive). The GI50 (HOP-18) was > 100 µM (inactive), the GI50 (XF498) was > 10 µM (inactive) and the GI50 (SF-295) was 43.5 µM (inactive). For the same compound, the GI50 (SK-OV-3) was 99.8 µM (inactive), the GI50 (K562) was > 10 µM (inactive) and the GI50 (DLD-1) was > 100 µM (inactive). For the same compound, the GI50 (RXF 393) was > 100 µM (inactive), the GI50 (SR) was > 100 µM (inactive) and the GI50 (KM-20L2) was > 100 µM (inactive). For the same compound, the GI50 (SNB-75) was 21.1 µM (inactive), the GI50 (HL-60) was > 10 µM (inactive) and the GI50 (SW-620) was > 100 µM (inactive). For the same compound, the GI50 (RPMI-8226) was > 100 µM (inactive), the GI50 (NCI-H460) was 51.9 µM (inactive) and the GI50 (M14) was > 100 µM (inactive). The GI50 (HOP-62) was > 100 µM (inactive), the GI50 (OVCAR-4) was > 100 µM (inactive) and the GI50 (IGROV-1) was > 100 µM (inactive). The GI50 (NCI-H23) was 89.3 µM (inactive), the GI50 (HCC 2998) was > 10 µM (inactive) and the GI50 (SF-268) was 38.3 µM (inactive). For the same compound, the GI50 (NCI-H226) was > 100 µM (inactive), the GI50 (DMS-114) was > 100 µM (inactive) and the GI50 (SK-MEL-28) was > 100 µM (inactive). For the same compound, the GI50 (U-251) was 45.1 µM (inactive), the GI50 (OVCAR-8) was 42.7 µM (inactive) and the GI50 (SK-MEL-5) was > 100 µM (inactive). For the same compound, the GI50 (KM12) was > 100 µM (inactive), the GI50 (SF-539) was 18.1 µM (inactive) and the GI50 (M19-MEL) was > 100 µM (inactive). The GI50 (EKVX) was > 10 µM (inactive), the GI50 (A498) was > 100 µM (inactive) and the GI50 (HOP-92) was > 100 µM (inactive). The GI50 (DMS-273) was > 100 µM (inactive), the GI50 (LOX IMVI) was 54.6 µM (inactive) and the GI50 (HCT-116) was 44.9 µM (inactive). The GI50 (Malme-3M) was > 100 µM (inactive), the GI50 (HCT-15) was over 100 µM and the GI50 (SNB-78) was 53 µM (inactive). The GI50 (CCRF-CEM) was > 10 µM (inactive), the GI50 (LXFL 529) was > 100 µM (inactive) and the GI50 (COLO 205) was > 100 µM (inactive). The GI50 (HT-29) was > 100 µM (inactive), the GI50 (OVCAR-3) was > 100 µM (inactive) and the GI50 (TK-10) was > 100 µM (inactive). For the same compound, the GI50 (OVCAR-5) was > 100 µM (inactive), the GI50 (786-0) was > 100 µM (inactive) and the GI50 (SNB-19) was > 100 µM (inactive). For the same compound, the GI50 (SN12C) was > 100 µM (inactive), the GI50 (RXF 631) was > 100 µM (inactive) and the GI50 (A549) was > 100 µM (inactive).

In the case of `COc1cc2c(cc1OC)C1(c3ccccc3)ON=C(c3ccccc3)N1CS2` (stereo not given), the GI50 (ACHN) is reported as > 100 µM (inactive), the GI50 (MOLT-4) is reported as 16.1 µM (inactive) and the GI50 (UO-31) is reported as > 100 µM (inactive). The GI50 (UACC-62) was 45.8 µM (inactive), the GI50 (UACC-257) was > 100 µM (inactive) and the GI50 (SK-MEL-2) was > 100 µM (inactive). The GI50 (HOP-18) was > 100 µM (inactive), the GI50 (XF498) was > 100 µM (inactive) and the GI50 (SF-295) was 60.1 µM (inactive). The GI50 (SK-OV-3) was > 100 µM (inactive), the GI50 (K562) was 52.7 µM (inactive) and the GI50 (DLD-1) was > 100 µM (inactive). The GI50 (RXF 393) was 63 µM (inactive), the GI50 (SR) was 23.6 µM (inactive) and the GI50 (KM-20L2) was > 100 µM (inactive). For the same compound, the GI50 (SNB-75) was > 100 µM (inactive), the GI50 (HL-60) was 16.1 µM (inactive) and the GI50 (SW-620) was > 100 µM (inactive). For the same compound, the GI50 (RPMI-8226) was 67.6 µM (inactive), the GI50 (NCI-H460) was > 100 µM (inactive) and the GI50 (M14) was 46 µM (inactive). For the same compound, the GI50 (HOP-62) was > 100 µM (inactive), the GI50 (NCI-H522) was > 100 µM (inactive) and the GI50 (OVCAR-4) was > 100 µM (inactive). The GI50 (IGROV-1) was > 100 µM (inactive), the GI50 (NCI-H23) was > 100 µM (inactive) and the GI50 (HCC 2998) was > 100 µM (inactive). The GI50 (SF-268) was > 100 µM (inactive), the GI50 (NCI-H226) was > 100 µM (inactive) and the GI50 (DMS-114) was > 100 µM (inactive). For the same compound, the GI50 (SK-MEL-28) was > 100 µM (inactive), the GI50 (U-251) was > 100 µM (inactive) and the GI50 (SK-MEL-5) was > 100 µM (inactive). The GI50 (KM12) was > 100 µM (inactive), the GI50 (CAKI-1) was > 100 µM (inactive) and the GI50 (SF-539) was > 100 µM (inactive). The GI50 (M19-MEL) was > 100 µM (inactive), the GI50 (EKVX) was > 100 µM (inactive) and the GI50 (A498) was > 100 µM (inactive). For the same compound, the GI50 (HOP-92) was 39.4 µM (inactive), the GI50 (DMS-273) was > 100 µM (inactive) and the GI50 (LOX IMVI) was > 100 µM (inactive). For the same compound, the GI50 (HCT-116) was 28.7 µM (inactive), the GI50 (Malme-3M) was > 100 µM (inactive) and the GI50 (HCT-15) was over 100 µM. For the same compound, the GI50 (SNB-78) was > 100 µM (inactive), the GI50 (CCRF-CEM) was 39.3 µM (inactive) and the GI50 (LXFL 529) was > 100 µM (inactive). For the same compound, the GI50 (COLO 205) was > 100 µM (inactive), the GI50 (HT-29) was 55.2 µM (inactive) and the GI50 (OVCAR-3) was > 100 µM (inactive). For the same compound, the GI50 (TK-10) was > 100 µM (inactive), the GI50 (OVCAR-5) was > 100 µM (inactive) and the GI50 (786-0) was > 100 µM (inactive). For the same compound, the GI50 (SNB-19) was > 100 µM (inactive), the GI50 (SN12C) was > 100 µM (inactive) and the GI50 (RXF 631) was > 100 µM (inactive). The GI50 (A549) was > 100 µM (inactive).
